Measured values: the kinase profiling compilation of Christmann-Franck et al. (2016)

Legend:
Experiment in all cases: KINOMEscan competition binding
Conditions in all cases: compound 10.0 µM
[1] = biological target: DAPK2 (human) (UniProt Q9UIK4)
[2] = biological target: STK16 (human) (UniProt O75716)
[3] = biological target: ACVR2B (human) (UniProt Q13705)
[4] = biological target: PRKD1 (human) (UniProt Q15139)
[5] = biological target: MAPK12 (human) (UniProt P53778)
[6] = biological target: ALK (human) (UniProt Q9UM73)
[7] = biological target: PRKAA1 (human) (UniProt Q13131)
[8] = system: EGFR (human), P00533 [T790M/L858R]
[9] = biological target: RIPK2 (human) (UniProt O43353)
[10] = biological target: PIP5K1A (human) (UniProt Q99755)
[11] = biological target: LRRK2 (human) (UniProt Q5S007)
[12] = biological target: EPHB2 (human) (UniProt P29323)
[13] = biological target: FGFR3 (human) (UniProt P22607)
[14] = biological target: DCLK3 (human) (UniProt Q9C098)
[15] = biological target: CDK3 (human) (UniProt Q00526)
[16] = biological target: PAK4 (human) (UniProt O96013)
PAK4 (human), sequence (O96013 whole entry, looked up): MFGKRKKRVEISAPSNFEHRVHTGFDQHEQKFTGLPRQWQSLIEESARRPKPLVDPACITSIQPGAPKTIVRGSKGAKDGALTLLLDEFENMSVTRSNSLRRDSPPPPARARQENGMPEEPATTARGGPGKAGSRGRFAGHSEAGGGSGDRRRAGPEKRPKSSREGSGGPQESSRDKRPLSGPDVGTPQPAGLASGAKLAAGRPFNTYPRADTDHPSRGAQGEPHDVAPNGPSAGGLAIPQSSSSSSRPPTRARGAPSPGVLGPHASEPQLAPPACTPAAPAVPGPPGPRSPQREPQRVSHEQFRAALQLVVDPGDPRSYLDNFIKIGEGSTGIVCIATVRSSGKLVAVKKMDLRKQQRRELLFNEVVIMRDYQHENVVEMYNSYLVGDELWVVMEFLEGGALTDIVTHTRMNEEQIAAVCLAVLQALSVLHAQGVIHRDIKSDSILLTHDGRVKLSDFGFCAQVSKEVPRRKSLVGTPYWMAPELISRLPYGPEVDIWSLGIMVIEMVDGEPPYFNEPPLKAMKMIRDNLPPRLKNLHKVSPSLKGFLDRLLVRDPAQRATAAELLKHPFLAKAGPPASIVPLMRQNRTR

[17] = biological target: MST4 (human) (UniProt Q9P289)
MST4 (human), sequence (Q9P289 whole entry, looked up): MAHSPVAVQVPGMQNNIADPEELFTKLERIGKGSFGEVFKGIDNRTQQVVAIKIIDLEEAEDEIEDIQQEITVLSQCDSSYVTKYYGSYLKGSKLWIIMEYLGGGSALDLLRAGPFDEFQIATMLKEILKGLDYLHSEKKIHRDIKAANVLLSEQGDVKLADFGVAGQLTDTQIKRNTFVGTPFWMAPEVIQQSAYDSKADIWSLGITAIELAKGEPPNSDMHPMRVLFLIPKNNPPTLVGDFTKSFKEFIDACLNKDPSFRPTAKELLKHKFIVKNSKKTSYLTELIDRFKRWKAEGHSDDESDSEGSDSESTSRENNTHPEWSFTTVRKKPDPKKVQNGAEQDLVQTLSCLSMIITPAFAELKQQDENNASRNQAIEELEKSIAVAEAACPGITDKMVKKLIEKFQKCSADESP

[18] = biological target: STK32A (human) (UniProt Q8WU08)
[19] = biological target: NEK9 (human) (UniProt Q8TD19)
NEK9 (human), sequence (Q8TD19 whole entry, looked up): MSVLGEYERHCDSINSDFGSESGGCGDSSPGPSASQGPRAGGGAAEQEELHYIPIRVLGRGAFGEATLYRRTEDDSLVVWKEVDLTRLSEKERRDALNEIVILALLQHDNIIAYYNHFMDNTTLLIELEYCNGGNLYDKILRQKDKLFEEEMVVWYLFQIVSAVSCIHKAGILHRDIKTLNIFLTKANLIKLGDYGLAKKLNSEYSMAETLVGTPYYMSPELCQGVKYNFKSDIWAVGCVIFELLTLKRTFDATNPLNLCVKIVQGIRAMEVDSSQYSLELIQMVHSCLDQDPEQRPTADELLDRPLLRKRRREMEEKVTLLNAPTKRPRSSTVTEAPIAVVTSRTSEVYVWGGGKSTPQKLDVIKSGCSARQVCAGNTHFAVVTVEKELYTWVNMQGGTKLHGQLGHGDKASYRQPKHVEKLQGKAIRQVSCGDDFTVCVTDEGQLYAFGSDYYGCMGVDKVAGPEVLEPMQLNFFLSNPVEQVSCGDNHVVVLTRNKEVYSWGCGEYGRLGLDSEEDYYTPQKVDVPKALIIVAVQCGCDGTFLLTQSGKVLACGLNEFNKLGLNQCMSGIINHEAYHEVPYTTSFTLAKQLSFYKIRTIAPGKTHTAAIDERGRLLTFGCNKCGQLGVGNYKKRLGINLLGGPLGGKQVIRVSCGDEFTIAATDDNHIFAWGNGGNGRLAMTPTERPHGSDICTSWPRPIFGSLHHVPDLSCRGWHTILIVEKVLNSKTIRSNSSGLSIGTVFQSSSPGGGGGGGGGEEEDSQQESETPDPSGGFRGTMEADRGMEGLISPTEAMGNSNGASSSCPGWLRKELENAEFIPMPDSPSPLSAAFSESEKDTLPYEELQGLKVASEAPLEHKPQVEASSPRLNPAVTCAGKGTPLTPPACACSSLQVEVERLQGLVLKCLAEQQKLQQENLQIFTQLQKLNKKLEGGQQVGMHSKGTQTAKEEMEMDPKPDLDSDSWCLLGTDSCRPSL

[20] = biological target: MAP3K13 (human) (UniProt O43283)
MAP3K13 (human), sequence (O43283 whole entry, looked up): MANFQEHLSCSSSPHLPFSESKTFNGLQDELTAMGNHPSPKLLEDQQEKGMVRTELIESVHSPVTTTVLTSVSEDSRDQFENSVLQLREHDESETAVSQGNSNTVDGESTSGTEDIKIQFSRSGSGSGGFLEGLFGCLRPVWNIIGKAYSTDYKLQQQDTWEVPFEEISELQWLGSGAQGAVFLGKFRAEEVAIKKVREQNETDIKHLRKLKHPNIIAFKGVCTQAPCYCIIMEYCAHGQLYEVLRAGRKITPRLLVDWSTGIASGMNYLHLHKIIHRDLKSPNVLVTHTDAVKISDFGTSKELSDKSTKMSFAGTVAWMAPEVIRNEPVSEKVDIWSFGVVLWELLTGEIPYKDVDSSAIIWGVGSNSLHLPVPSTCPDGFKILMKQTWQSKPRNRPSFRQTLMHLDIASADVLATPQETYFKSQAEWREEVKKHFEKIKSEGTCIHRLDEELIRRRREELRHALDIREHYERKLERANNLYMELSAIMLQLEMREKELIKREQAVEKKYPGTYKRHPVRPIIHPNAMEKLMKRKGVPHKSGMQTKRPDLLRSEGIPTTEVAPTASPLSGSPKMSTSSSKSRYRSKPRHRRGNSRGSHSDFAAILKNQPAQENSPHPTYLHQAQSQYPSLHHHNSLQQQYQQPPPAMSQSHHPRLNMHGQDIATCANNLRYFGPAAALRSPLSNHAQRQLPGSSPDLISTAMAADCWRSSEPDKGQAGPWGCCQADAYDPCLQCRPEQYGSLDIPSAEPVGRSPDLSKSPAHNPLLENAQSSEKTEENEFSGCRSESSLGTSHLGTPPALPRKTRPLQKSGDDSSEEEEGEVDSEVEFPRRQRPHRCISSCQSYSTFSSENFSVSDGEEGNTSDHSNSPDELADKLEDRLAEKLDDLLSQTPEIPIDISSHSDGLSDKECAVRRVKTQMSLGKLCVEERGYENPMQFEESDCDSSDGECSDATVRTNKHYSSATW

[21] = biological target: TYK2 JH1 catalytic (human) (UniProt P29597)
[22] = biological target: EPHA8 (human) (UniProt P29322)
[23] = biological target: MAPK10 (human) (UniProt P53779)
[24] = biological target: ICK (human) (UniProt Q9UPZ9)
[25] = biological target: PRKD2 (human) (UniProt Q9BZL6)
[26] = biological target: SGK110 (human) (UniProt P0C264)
SGK110 (human), sequence (P0C264 whole entry, looked up): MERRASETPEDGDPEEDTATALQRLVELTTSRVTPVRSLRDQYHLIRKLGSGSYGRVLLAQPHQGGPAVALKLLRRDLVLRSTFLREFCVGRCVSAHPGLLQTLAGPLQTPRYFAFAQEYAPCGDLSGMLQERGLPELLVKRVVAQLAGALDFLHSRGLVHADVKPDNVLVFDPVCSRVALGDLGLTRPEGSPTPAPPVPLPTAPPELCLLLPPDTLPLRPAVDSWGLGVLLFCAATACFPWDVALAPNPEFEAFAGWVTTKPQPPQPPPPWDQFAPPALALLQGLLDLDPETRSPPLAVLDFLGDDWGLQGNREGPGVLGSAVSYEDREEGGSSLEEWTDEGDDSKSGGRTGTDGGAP

[27] = biological target: CDKL1 (human) (UniProt Q00532)
CDKL1 (human), sequence (Q00532 whole entry, looked up): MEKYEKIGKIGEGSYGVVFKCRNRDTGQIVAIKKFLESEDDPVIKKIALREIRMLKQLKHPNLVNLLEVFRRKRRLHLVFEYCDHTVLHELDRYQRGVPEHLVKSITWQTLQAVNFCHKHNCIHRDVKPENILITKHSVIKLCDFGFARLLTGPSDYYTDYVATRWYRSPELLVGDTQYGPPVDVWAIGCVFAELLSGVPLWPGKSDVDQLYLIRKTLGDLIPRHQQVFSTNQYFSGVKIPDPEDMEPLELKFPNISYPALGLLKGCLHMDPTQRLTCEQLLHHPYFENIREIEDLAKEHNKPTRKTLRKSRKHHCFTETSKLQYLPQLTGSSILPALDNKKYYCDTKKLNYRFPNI

[28] = biological target: PIP4K2B (human) (UniProt P78356)
[29] = biological target: TESK1 (human) (UniProt Q15569)
TESK1 (human), sequence (Q15569 whole entry, looked up): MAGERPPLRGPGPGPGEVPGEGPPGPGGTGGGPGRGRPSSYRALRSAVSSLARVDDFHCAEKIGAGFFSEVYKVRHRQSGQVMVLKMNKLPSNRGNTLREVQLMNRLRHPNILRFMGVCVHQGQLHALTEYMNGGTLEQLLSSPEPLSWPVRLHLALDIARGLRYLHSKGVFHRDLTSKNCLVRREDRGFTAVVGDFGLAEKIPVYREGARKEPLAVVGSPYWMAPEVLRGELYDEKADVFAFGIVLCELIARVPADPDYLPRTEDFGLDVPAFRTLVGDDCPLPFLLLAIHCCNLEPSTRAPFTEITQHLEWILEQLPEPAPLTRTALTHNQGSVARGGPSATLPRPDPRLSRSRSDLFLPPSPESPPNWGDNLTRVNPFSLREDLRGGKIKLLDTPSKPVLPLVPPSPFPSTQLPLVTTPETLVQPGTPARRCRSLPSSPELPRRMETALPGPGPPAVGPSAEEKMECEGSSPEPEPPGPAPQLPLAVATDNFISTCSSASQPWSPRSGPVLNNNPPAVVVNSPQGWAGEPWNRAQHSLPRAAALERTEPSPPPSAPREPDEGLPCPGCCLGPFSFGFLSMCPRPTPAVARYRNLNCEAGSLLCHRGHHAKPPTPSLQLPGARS

[30] = biological target: MAP4K5 (human) (UniProt Q9Y4K4)
[31] = biological target: HUNK (human) (UniProt P57058)
HUNK (human), sequence (P57058 whole entry, looked up): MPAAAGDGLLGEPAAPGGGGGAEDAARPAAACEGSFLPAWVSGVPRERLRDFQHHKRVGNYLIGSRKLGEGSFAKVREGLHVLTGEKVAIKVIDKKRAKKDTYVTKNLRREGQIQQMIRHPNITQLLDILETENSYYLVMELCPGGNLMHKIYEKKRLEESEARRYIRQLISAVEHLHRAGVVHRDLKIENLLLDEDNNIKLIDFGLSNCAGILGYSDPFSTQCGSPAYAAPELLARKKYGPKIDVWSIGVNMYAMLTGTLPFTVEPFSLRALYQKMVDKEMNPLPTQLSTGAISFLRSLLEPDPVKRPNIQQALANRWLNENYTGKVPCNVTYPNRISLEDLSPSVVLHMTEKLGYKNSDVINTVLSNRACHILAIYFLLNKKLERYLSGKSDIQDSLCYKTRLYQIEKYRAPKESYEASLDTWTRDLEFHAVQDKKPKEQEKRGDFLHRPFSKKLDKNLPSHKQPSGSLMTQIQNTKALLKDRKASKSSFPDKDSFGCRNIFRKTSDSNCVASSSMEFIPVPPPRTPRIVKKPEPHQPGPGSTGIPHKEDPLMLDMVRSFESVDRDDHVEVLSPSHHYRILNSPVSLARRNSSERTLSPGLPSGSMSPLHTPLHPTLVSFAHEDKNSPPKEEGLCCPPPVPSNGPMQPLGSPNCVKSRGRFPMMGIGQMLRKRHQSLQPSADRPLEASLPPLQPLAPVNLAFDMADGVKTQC

[32] = biological target: TBK1 (human) (UniProt Q9UHD2)
[33] = biological target: MAP3K12 (human) (UniProt Q12852)
[34] = biological target: BMPR2 (human) (UniProt Q13873)
[35] = biological target: CSNK1A1L (human) (UniProt Q8N752)
[36] = biological target: HIPK3 (human) (UniProt Q9H422)
[37] = biological target: RPS6KA3 KD1 (human) (UniProt P51812)
[38] = biological target: CLK1 (human) (UniProt P49759)
[39] = biological target: EPHB6 (human) (UniProt O15197)
[40] = biological target: PLK3 (human) (UniProt Q9H4B4)

Compound | kinase still bound, per cent of control [1] | kinase still bound, per cent of control [2] | kinase still bound, per cent of control [3] | kinase still bound, per cent of control [4] | kinase still bound, per cent of control [5] | kinase still bound, per cent of control [6] | kinase still bound, per cent of control [7] | kinase still bound, per cent of control [8] | kinase still bound, per cent of control [9] | kinase still bound, per cent of control [10] | kinase still bound, per cent of control [11] | kinase still bound, per cent of control [12] | kinase still bound, per cent of control [13] | kinase still bound, per cent of control [14] | kinase still bound, per cent of control [15] | kinase still bound, per cent of control [16] | kinase still bound, per cent of control [17] | kinase still bound, per cent of control [18] | kinase still bound, per cent of control [19] | kinase still bound, per cent of control [20] | other results
O=c1cc(N2CCOCC2)oc2c(-c3cccc4c3sc3ccccc34)cccc12 | 90% | 98% | 98% | 98% | 99% | 100% | 100% | 93% | 91% | 100% | 100% | 91% | 80% | 100% | 100% | 80% | 95% | 100% | 93% | 100% | kinase still bound, per cent of control [21]: 75%; kinase still bound, per cent of control [22]: 82%; kinase still bound, per cent of control [23]: 100%; kinase still bound, per cent of control [24]: 100%; kinase still bound, per cent of control [25]: 100%; kinase still bound, per cent of control [26]: 100%; kinase still bound, per cent of control [27]: 87%; kinase still bound, per cent of control [28]: 100%; kinase still bound, per cent of control [29]: 72%; kinase still bound, per cent of control [30]: 89%; kinase still bound, per cent of control [31]: 75%; kinase still bound, per cent of control [32]: 84%; kinase still bound, per cent of control [33]: 90%; kinase still bound, per cent of control [34]: 83%; kinase still bound, per cent of control [35]: 92%; kinase still bound, per cent of control [36]: 92%; kinase still bound, per cent of control [37]: 84%; kinase still bound, per cent of control [38]: 89%; kinase still bound, per cent of control [39]: 100%; kinase still bound, per cent of control [40]: 86%
CN(C)C/C=C/C(=O)Nc1ccc(C(=O)Nc2cccc(Nc3nccc(-c4cccnc4)n3)c2)cc1 | 81% | 1.2% | 98% | 100% | 76% | 100% | 100% | 100% | 84% | 34% | 100% | 100% | 96% | 100% | 96% | 83% | 100% | 95% | 22% | 100% | kinase still bound, per cent of control [21]: 15%; kinase still bound, per cent of control [22]: 91%; kinase still bound, per cent of control [23]: 1.3%; kinase still bound, per cent of control [24]: 62%; kinase still bound, per cent of control [25]: 100%; kinase still bound, per cent of control [26]: 100%; kinase still bound, per cent of control [27]: 41%; kinase still bound, per cent of control [28]: 56%; kinase still bound, per cent of control [29]: 74%; kinase still bound, per cent of control [30]: 59%; kinase still bound, per cent of control [31]: 69%; kinase still bound, per cent of control [32]: 38%; kinase still bound, per cent of control [33]: 74%; kinase still bound, per cent of control [34]: 100%; kinase still bound, per cent of control [35]: 100%; kinase still bound, per cent of control [36]: 4.2%; kinase still bound, per cent of control [37]: 62%; kinase still bound, per cent of control [38]: 4.6%; kinase still bound, per cent of control [39]: 3.9%; kinase still bound, per cent of control [40]: 35%
